pEC50: −log10 of the molar value.
target: human APJ receptor (Homo sapiens (Human), UniProt P35414); experiment: biochemical; format: biochemical; settings: [35S]GTPγS binding, CHO membranes expressing human APJ receptor; read-out: Activity hAPJ SPA EC50 IP
Procedure, shortened: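 GTPγS binding on membranes from CHO cells stably expressing FLAG-tagged human APJ, with optimized GDP, MgCl2 and NaCl; incubated 90 min at RT before imaging read-out.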

Sequence of human APJ receptor (P35414 whole entry): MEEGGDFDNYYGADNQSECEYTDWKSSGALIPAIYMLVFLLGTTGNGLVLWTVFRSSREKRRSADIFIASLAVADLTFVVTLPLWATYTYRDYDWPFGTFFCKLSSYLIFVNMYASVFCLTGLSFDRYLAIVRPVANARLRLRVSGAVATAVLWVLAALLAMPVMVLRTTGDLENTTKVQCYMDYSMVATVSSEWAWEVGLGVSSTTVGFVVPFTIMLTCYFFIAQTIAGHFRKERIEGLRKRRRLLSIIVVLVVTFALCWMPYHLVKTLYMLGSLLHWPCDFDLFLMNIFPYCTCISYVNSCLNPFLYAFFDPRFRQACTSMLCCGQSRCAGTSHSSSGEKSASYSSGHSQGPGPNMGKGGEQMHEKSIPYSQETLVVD

Question: How did the pEC50 turn out when `COc1cnc([C@@H](C)[C@H](C)S(=O)(=O)Nc2nnc(-c3ccn(C)n3)n2-c2c(OC)ncnc2OC)nc1` [Example 296.0, (2S,3R)-N-(4-(4,6-dimethoxy-5-pyrimidinyl)-5-(1-methyl-1H-pyrazol-3-yl)-4H-1,2,4-triazol-3-yl)-3-(5-methoxy-2-pyrimidinyl)-2-butanesulfonamide] was run?
Answer: The pEC50 was 8.57.

Question: `COc1cccc(OC)c1-n1c(NS(=O)(=O)[C@@H](C)[C@H](C)c2ncc(C)cn2)nnc1-c1cnn(C)c1` [Example 215.0, (2S,3R)-N-(4-(2,6-dimethoxyphenyl)-5-(1-methyl-1H-pyrazol-4-yl)-4H-1,2,4-triazol-3-yl)-3-(5-methyl-2-pyrimidinyl)-2-butanesulfonamide] was tested. Which pEC50 did it give?
Answer: Its pEC50 is 9.38.

Question: `COCC1(n2c(NS(=O)(=O)[C@@H](C)[C@H](OC)c3ncc(Cl)cn3)nnc2-c2nn(C)c3c2CCCC3)CC1` [Example 513.0, (1R,2S)-1-(5-chloropyrimidin-2-yl)-1-methoxy-N-(4-(1-(methoxymethyl)cyclopropyl)-5-(1-methyl-4,5,6,7-tetrahydro-1H-indazol-3-yl)-4H-1,2,4-triazol-3-yl)propane-2-sulfonamide] was tested. Which pEC50 did it give?
Answer: Its pEC50 is 8.51.

Question: How did the pEC50 turn out when `C=CCO[C@@H](c1ncc(F)cn1)[C@@H](C)S(=O)(=O)Nc1nnc(-c2nc(C)cs2)n1-c1c(OC)cccc1OC` (single isomer, unassigned) [Example 169.0, (1S,2R)-1-(Allyloxy)-N-(4-(2,6-dimethoxyphenyl)-5-(4-methylthiazol-2-yl)-4H-1,2,4-triazol-3-yl)-1-(5-fluoropyrimidin-2-yl)propane-2-sulfonamide or (1R,2S)-1-(allyloxy)-N-(4-(2,6-dimethoxyphenyl)-5-(4-methylthiazol-2-yl)-4H-1,2,4-triazol-3-yl)-1-(5-fluoropyrimidin-2-yl)propane-2-sulfonamide] was run?
Answer: Its pEC50 is 9.34.

Question: How did the pEC50 turn out when `COc1cccc(OC)c1-n1c(NS(=O)(=O)[C@@H](C)[C@H](OC)c2ncc(C)cn2)nnc1-c1coc(C)n1` [Example 339.0, (1R,2S)-N-(4-(2,6-dimethoxyphenyl)-5-(2-methyl-1,3-oxazol-4-yl)-4H-1,2,4-triazol-3-yl)-1-methoxy-1-(5-methyl-2-pyrimidinyl)-2-propanesulfonamide] was run?
Answer: The pEC50 was 8.68.

Question: With `COc1cccc(OC)c1-n1c(NS(=O)(=O)CCC(=O)N2CCCC2)nnc1-c1cccs1` [Example 361.0, N-(4-(2,6-Dimethoxyphenyl)-5-(thiophen-2-yl)-4H-1,2,4-triazol-3-yl)-3-oxo-3-(pyrrolidin-1-yl)propane-1-sulfonamide] as the compound, how does the pEC50 read?
Answer: Its pEC50 is 7.47.

Question: How did the pEC50 turn out when `CO[C@H](c1ncc(C)cn1)[C@H](C)S(=O)(=O)Nc1nnc(-c2ccn(C)n2)n1-c1c(F)cccc1F` [Example 233.0, (1R,2S)-N-(4-(2,6-difluorophenyl)-5-(1-methyl-1H-pyrazol-3-yl)-4H-1,2,4-triazol-3-yl)-1-methoxy-1-(5-methyl-2-pyrimidinyl)-2-propanesulfonamide] was run?
Answer: Its pEC50 is 7.77.

Question: `COc1cccc(OC)c1-n1c(NS(=O)(=O)[C@H](C)[C@@H](OC)c2ncc(F)cn2)nnc1-c1ccn(C)n1` (single isomer, unassigned) [Example 117.0, (1S,2R)-N-(4-(2,6-dimethoxyphenyl)-5-(1-methyl-1H-pyrazol-3-yl)-4H-1,2,4-triazol-3-yl)-1-(5-fluoropyrimidin-2-yl)-1-methoxypropane-2-sulfonamide or (1R,2S)-N-(4-(2,6-dimethoxyphenyl)-5-(1-methyl-1H-pyrazol-3-yl)-4H-1,2,4-triazol-3-yl)-1-(5-fluoropyrimidin-2-yl)-1-methoxypropane-2-sulfonamide] was tested. Which pEC50 did it give?
Answer: Its pEC50 is 9.16.

Question: With `COc1cccc(OC)c1-n1c(NS(=O)(=O)[C@@H](C)[C@H](C)c2ncc(C#N)cn2)nnc1-c1cc2n(n1)CCC2` [Example 225.0] as the compound, how does the pEC50 read?
Answer: The pEC50 was 8.70.

Question: How did the pEC50 turn out when `COc1ncnc(OC)c1-n1c(NS(=O)(=O)[C@@H](C)[C@H](C)c2ncc(Cl)cn2)nnc1-c1nn(C)c2ccc(C)cc12` [Example 433.0, (2S,3R)-3-(5-chloropyrimidin-2-yl)-N-(4-(4,6-dimethoxypyrimidin-5-yl)-5-(1,5-dimethyl-1H-indazol-3-yl)-4H-1,2,4-triazol-3-yl)butane-2-sulfonamide] was run?
Answer: Its pEC50 is 9.08.

Source: patent US11046680B1, “Heteroaryl-substituted triazoles as APJ receptor agonists” (priority 2016, dated 2021)
